Experimental data as given in US7820623B2 (priority 2006, dated 2010).
Bridge positions count the residues as written; N and C are the ends. Square brackets hold non-standard residues; d marks the D form. Peptide text beside a SMILES is read from it. 1Nal = N[C@@H](Cc1cccc2ccccc12)C(=O)O

How the values were obtained:
[1] = system: thapsigargin-induced IFN-g production in human whole blood; format: cell-based; conditions: read-out: Analogue Activity (IC50) WB/IFNg
[2] = system: thapsigargin-induced IL-2 production in human whole blood; conditions: read-out: Analogue Activity (IC50) WB/IL-2

Row | SMILES | IC50 [1] [nM] | IC50 [2] [nM]
1 | CC[C@H](C)[C@@H]1NC(=O)[C@H](CCCCN)NC(=O)[C@@H](NC(=O)[C@H](CCCCN)NC(=O)[C@@H](NC(=O)[C@H](CC(N)=O)NC(=O)[C@@H](NC(=O)[C@@H](NC(=O)[C@@H](NC(=O)CN)C(C)C)[C@@H](C)CC)[C@@H](C)CC)C(C)C)CSSC[C@@H]2NC(=O)[C@H](CCCCN)NC(=O)CNC(=O)[C@H](Cc3ccccc3)NC(=O)[C@H](CCCNC(=N)N)NC(=O)[C@H](Cc3cccc4ccccc34)NC(=O)CNC(=O)[C@H](C)NC(=O)[C@H](CCCCN)NC(=O)[C@H](CCCCN)NC(=O)[C@@H]3CSSC[C@@H](C(=O)N[C@H](C(=O)N4CCC[C@H]4C(=O)N[C@@H](CCCCN)C(=O)O)[C@@H](C)O)NC(=O)[C@H](Cc4c[nH]cn4)NC(=O)[C@H](CSSC[C@H](NC(=O)[C@H](CCC(N)=O)NC(=O)[C@H](CCCNC(=N)N)NC(=O)[C@H](CO)NC1=O)C(=O)N[C@@H](CC(C)C)C(=O)N[C@@H](CCC(=O)O)C(=O)N1CCC[C@H]1C(=O)N3)NC(=O)[C@H](CCCCN)NC(=O)CNC(=O)[C@H](CC(N)=O)NC(=O)[C@H](CCSC)NC2=O [M23Nal] (H-GVIINVKCKISRQCLEPCKKAG[1Nal]RFGKCMNGKCHCTPK-OH; disulfide 8-28, 14-33, 18-35) | 1.11 | 0.581
2 | CC[C@H](C)[C@@H]1NC(=O)[C@H](CCCCN)NC(=O)[C@@H](NC(=O)[C@H](CCCCN)NC(=O)[C@@H](NC(=O)[C@H](CC(N)=O)NC(=O)[C@@H](NC(=O)[C@@H](NC(=O)[C@@H](NC(=O)CN)C(C)C)[C@@H](C)CC)[C@@H](C)CC)C(C)C)CSSC[C@@H]2NC(=O)[C@H](CCCCN)NC(=O)CNC(=O)[C@H](Cc3ccccc3)NC(=O)[C@H](CCCNC(=N)N)NC(=O)[C@H](CCCNC(=N)N)NC(=O)CNC(=O)[C@H](C)NC(=O)[C@H](CCCCN)NC(=O)[C@H](CCCCN)NC(=O)[C@@H]3CSSC[C@@H](C(=O)N[C@H](C(=O)N4CCC[C@H]4C(=O)N[C@@H](CCCCN)C(=O)O)[C@@H](C)O)NC(=O)[C@H](Cc4c[nH]cn4)NC(=O)[C@H](CSSC[C@H](NC(=O)[C@H](CCC(N)=O)NC(=O)[C@H](CCCNC(=N)N)NC(=O)[C@H](CO)NC1=O)C(=O)N[C@@H](CC(C)C)C(=O)N[C@@H](CCC(=O)O)C(=O)N1CCC[C@H]1C(=O)N3)NC(=O)[C@H](CCCCN)NC(=O)CNC(=O)[C@H](CC(N)=O)NC(=O)[C@H](CCSC)NC2=O [M23R] (H-GVIINVKCKISRQCLEPCKKAGRRFGKCMNGKCHCTPK-OH; disulfide 8-28, 14-33, 18-35) | 0.148 | 0.182
3 | CC[C@H](C)[C@@H]1NC(=O)[C@H](CCCCN)NC(=O)[C@@H](NC(=O)[C@H](CCCCN)NC(=O)[C@@H](NC(=O)[C@H](C)NC(=O)[C@@H](NC(=O)[C@@H](NC(=O)[C@@H](NC(=O)CN)C(C)C)[C@@H](C)CC)[C@@H](C)CC)C(C)C)CSSC[C@@H]2NC(=O)[C@H](CCCCN)NC(=O)CNC(=O)[C@H](Cc3ccccc3)NC(=O)[C@H](CCCNC(=N)N)NC(=O)[C@H](CCSC)NC(=O)CNC(=O)[C@H](C)NC(=O)[C@H](CCCCN)NC(=O)[C@H](CCCCN)NC(=O)[C@@H]3CSSC[C@@H](C(=O)N[C@H](C(=O)N4CCC[C@H]4C(=O)N[C@@H](CCCCN)C(=O)O)[C@@H](C)O)NC(=O)[C@H](Cc4c[nH]cn4)NC(=O)[C@H](CSSC[C@H](NC(=O)[C@H](CCC(N)=O)NC(=O)[C@H](CCCNC(=N)N)NC(=O)[C@H](CO)NC1=O)C(=O)N[C@@H](CC(C)C)C(=O)N[C@@H](CCC(=O)O)C(=O)N1CCC[C@H]1C(=O)N3)NC(=O)[C@H](CCCCN)NC(=O)CNC(=O)[C@H](CC(N)=O)NC(=O)[C@H](CCSC)NC2=O [N5A] (H-GVIIAVKCKISRQCLEPCKKAGMRFGKCMNGKCHCTPK-OH; disulfide 8-28, 14-33, 18-35) | 0.067 | 0.0679
4 | CC[C@H](C)[C@@H]1NC(=O)[C@H](CCCCN)NC(=O)[C@@H](NC(=O)[C@H](CCCCN)NC(=O)[C@@H](NC(=O)[C@H](CCC(=O)O)NC(=O)[C@@H](NC(=O)[C@@H](NC(=O)[C@@H](NC(=O)CN)C(C)C)[C@@H](C)CC)[C@@H](C)CC)C(C)C)CSSC[C@@H]2NC(=O)[C@H](CCCCN)NC(=O)CNC(=O)[C@H](Cc3ccccc3)NC(=O)[C@H](CCCNC(=N)N)NC(=O)[C@H](CCSC)NC(=O)CNC(=O)[C@H](C)NC(=O)[C@H](CCCCN)NC(=O)[C@H](CCCCN)NC(=O)[C@@H]3CSSC[C@@H](C(=O)N[C@H](C(=O)N4CCC[C@H]4C(=O)N[C@@H](CCCCN)C(=O)O)[C@@H](C)O)NC(=O)[C@H](Cc4c[nH]cn4)NC(=O)[C@H](CSSC[C@H](NC(=O)[C@H](CCC(N)=O)NC(=O)[C@H](CCCNC(=N)N)NC(=O)[C@H](CO)NC1=O)C(=O)N[C@@H](CC(C)C)C(=O)N[C@@H](CCC(=O)O)C(=O)N1CCC[C@H]1C(=O)N3)NC(=O)[C@H](CCCCN)NC(=O)CNC(=O)[C@H](CC(N)=O)NC(=O)[C@H](CCSC)NC2=O [N5E] (H-GVIIEVKCKISRQCLEPCKKAGMRFGKCMNGKCHCTPK-OH; disulfide 8-28, 14-33, 18-35) | 0.065 | 0.1
5 | CC[C@H](C)[C@@H]1NC(=O)[C@H](CCCCN)NC(=O)[C@@H](NC(=O)[C@H](CCCCN)NC(=O)[C@@H](NC(=O)[C@H](Cc2cccc3ccccc23)NC(=O)[C@@H](NC(=O)[C@@H](NC(=O)[C@@H](NC(=O)CN)C(C)C)[C@@H](C)CC)[C@@H](C)CC)C(C)C)CSSC[C@@H]2NC(=O)[C@H](CCCCN)NC(=O)CNC(=O)[C@H](Cc3ccccc3)NC(=O)[C@H](CCCNC(=N)N)NC(=O)[C@H](CCSC)NC(=O)CNC(=O)[C@H](C)NC(=O)[C@H](CCCCN)NC(=O)[C@H](CCCCN)NC(=O)[C@@H]3CSSC[C@@H](C(=O)N[C@H](C(=O)N4CCC[C@H]4C(=O)N[C@@H](CCCCN)C(=O)O)[C@@H](C)O)NC(=O)[C@H](Cc4c[nH]cn4)NC(=O)[C@H](CSSC[C@H](NC(=O)[C@H](CCC(N)=O)NC(=O)[C@H](CCCNC(=N)N)NC(=O)[C@H](CO)NC1=O)C(=O)N[C@@H](CC(C)C)C(=O)N[C@@H](CCC(=O)O)C(=O)N1CCC[C@H]1C(=O)N3)NC(=O)[C@H](CCCCN)NC(=O)CNC(=O)[C@H](CC(N)=O)NC(=O)[C@H](CCSC)NC2=O [N5Nal] (H-GVII[1Nal]VKCKISRQCLEPCKKAGMRFGKCMNGKCHCTPK-OH; disulfide 8-28, 14-33, 18-35) | 0.431 | 0.76
6 | CC[C@H](C)[C@@H]1NC(=O)[C@H](CCCCN)NC(=O)[C@@H](NC(=O)[C@H](CCCCN)NC(=O)[C@@H](NC(=O)[C@H](CCCNC(=N)N)NC(=O)[C@@H](NC(=O)[C@@H](NC(=O)[C@@H](NC(=O)CN)C(C)C)[C@@H](C)CC)[C@@H](C)CC)C(C)C)CSSC[C@@H]2NC(=O)[C@H](CCCCN)NC(=O)CNC(=O)[C@H](Cc3ccccc3)NC(=O)[C@H](CCCNC(=N)N)NC(=O)[C@H](CCSC)NC(=O)CNC(=O)[C@H](C)NC(=O)[C@H](CCCCN)NC(=O)[C@H](CCCCN)NC(=O)[C@@H]3CSSC[C@@H](C(=O)N[C@H](C(=O)N4CCC[C@H]4C(=O)N[C@@H](CCCCN)C(=O)O)[C@@H](C)O)NC(=O)[C@H](Cc4c[nH]cn4)NC(=O)[C@H](CSSC[C@H](NC(=O)[C@H](CCC(N)=O)NC(=O)[C@H](CCCNC(=N)N)NC(=O)[C@H](CO)NC1=O)C(=O)N[C@@H](CC(C)C)C(=O)N[C@@H](CCC(=O)O)C(=O)N1CCC[C@H]1C(=O)N3)NC(=O)[C@H](CCCCN)NC(=O)CNC(=O)[C@H](CC(N)=O)NC(=O)[C@H](CCSC)NC2=O [N5R] (H-GVIIRVKCKISRQCLEPCKKAGMRFGKCMNGKCHCTPK-OH; disulfide 8-28, 14-33, 18-35) | 0.12 | 0.095
